Test results published in patent US8642580B2, “Combined therapy against tumors comprising substituted acryloyl distamycin derivatives and platinum derivatives” (priority 2000, dated 2014).

What was measured:
[1] = system: human colon carcinoma HCT-116 (low/medium GST and MMR deficiency); assay: Antitumor activity against subcutaneous implanted HCT-116 human colon carcinoma; assay type: in vivo; details: for Log cell Kill total / WL % day of nadir / WL % / Tumor free/total mice: IV q7dx3; for Log cell Kill total / WL % day of nadir / WL % / T/C % (tumor regression) / Tumor free/total mice: PNU 166196 0.4 mg/kg, cisplatin 2 mg/kg; for WL %: at nadir; for T/C % (tumor regression): day 20 after treatment, IV q7dx3 from day 7 after implant, PNU 166196 48 hours after cisplatin, NCI: T/C ≦ 42 active; for Tumor free/total mice: on day 40 after tumor implant
[2] = system: disseminated L1210 murine leukemia; assay: Antileukemic activity against disseminated L1210 murine leukemia; assay type: in vivo; details: for ILS % (increase in life span): L1210 10^5 cells/mouse IV day 0; for ILS % (increase in life span) / Tox (number of toxic deaths/number of mice): PNU 166196 0.26 mg/kg/day iv days +1,2, combination same doses and schedule; for Toxicity (in words): single agents: cisplatin 5.9 mg/kg day +3, carboplatin 135 mg/kg day +3, PNU 166196 0.26 mg/kg days +1,2
[3] = Table 1, cisplatin 5.9 mg/kg iv day +3
[4] = Table 2, carboplatin 135 mg/kg iv day +3

| Compound | Log cell Kill total [1] | WL % day of nadir [1] | WL % [1] | T/C % (tumor regression) [1] | Tumor free/total mice [1] | ILS % (increase in life span) [2, 3] | ILS % (increase in life span) [2, 4] | Tox (number of toxic deaths/number of mice) [2, 4] | Toxicity (in words) [2] | Toxicity (in words) ([1]; single agents: cisplatin 2 mg/kg q7dx3, PNU 166196 0.4 mg/kg q7dx3) | Tox (number of toxic deaths/number of mice) [2, 3] |
| --- | --- | --- | --- | --- | --- | --- | --- | --- | --- | --- | --- |
| N.N.[Cl][Pt][Cl] [Cisplatin, cisplatin, reference compound] | 0 | 24 days | 12% | 92% | 0/7 | 67% |  |  |  |  |  |
| N.N.O=C([O-])C1(C(=O)[O-])CCC1.[Pt+2] [Carboplatin, carboplatin, reference compound] |  |  |  |  |  |  | 50% | 0/10 | without toxicity |  |  |
| C=C(Br)C(=O)Nc1cc(C(=O)Nc2cc(C(=O)Nc3cc(C(=O)Nc4cc(C(=O)NCCNC(=N)N)n(C)c4)n(C)c3)n(C)c2)n(C)c1.Cl [PNU 166196, N-(5-{[(5-{[(5-{[(2-{[amino(imino)methyl]amino}ethyl)amino]carbonyl}-1-methyl-1H-pyrrol-3-yl)amino]carbonyl}-1-methyl-1H-pyrrol-3-yl)amino]carbonyl}-1-methyl-1H-pyrrol-3-yl)-4-[(2-bromoacryloyl)amino]-1-methyl-1H-pyrrole-2-carboxamide hydrochloride] | 0.15 | 29 days | 12% | 61% | 0/8 | 33% | 33% | 0/10 | without toxicity | without toxicity | 0/10 |
